For assay [1], the target named is T1, CAIX (Homo sapiens, UniProt Q16790). Briefly: Competitive fluorescence polarization assay for [113/115In]XYIMSR-01. In kind it is binding. On the set-up: purchased R&D Systems. The text has this:
(§1) General Procedures. Solvents and chemicals obtained from commercial sources were of analytical grade or better and used without further purification. Fmoc-protected azidolysine, HBTU, and N-α-fmoc-L-aspartic acid α-tert-butyl ester were purchased from Chem Impex International, Inc. (Wooddale, Ill.). Carrier-free [^111In]InCl3 was purchased from MDS Nordion (Ottawa, ON, Canada). DOTA-NHS-ester (1,4,7,10-tetraazacyclododecane-1,4,7,10-tetraacetic acid mono N-hydroxysuccinimide ester) was purchased from Macrocyclics, Inc. (Dallas, Tex.). Indium (III) nitrate, triethylsilane (Et3SiH), N,N-diisopropylethylamine (DIEA), triethylamine (TEA), piperidine, 4,4-bis(4-hydroxyphenyl)valeric acid, copper iodide (CuI), and tris[(1-benzyl-1H-1,2,3-triazol-4-yl)methyl]amine (TBTA) were purchased from Sigma-Aldrich (Saint Louis, Mo.). Pre-loaded O-bis-(aminoethyl)ethylene glycol on trityl resin was purchased from EMD Millipore (Billerica, Mass.). Flash chromatography was performed using MP SiliTech 32-63 D 60 Å silica gel purchased from Bodman (Aston, Pa.). Recombinant human CAIX was purchased from R&D Systems (Minneapolis, Minn.). 1H NMR spectra were recorded on a Bruker Ultrashield 500 MHz spectrometer. Chemical shifts (δ) were reported in ppm downfield by reference to proton resonances resulting from incomplete deuteration of the NMR solvent. ESI mass spectra were obtained on a Bruker Daltonics Esquire 3000 Plus spectrometer (Billerica, Mass.).
Competitive Fluorescence Polarization Assay for [^113/115In]XYIMSR-01. Fluorescence polarization (FP) experiments were performed in 21 μL of the assay buffer (12.5 mM Tris-HCl, pH 7.5, 75 mM NaCl) in black flat bottom 384-well microplates (Corning, Inc., New York, N.Y.) The FP reaction employed 100 nM of purified CAIX (R&D systems, Minneapolis, Minn.) and 80 nM FITC-labeled 8 (Wichert, et al., 2015) within the assay buffer. The FP values were measured as mP units using the Victor3 multi-label plate reader equipped with excitation (485 nm) and emission (535 nm) filters (Perkin Elmer, Waltham, Mass.). 100 nM CAIX was incubated with serially diluted (from 1 μM to 61 fM) concentrations of the three targeting molecules, 2, XYIMSR-01, and [^113/115In]XYIMSR-01 for 30 min at room temperature in 384-well plates. 80 nM 8 was added to each well and the reaction was incubated for 30 min at room temperature followed by FP measurement. Experiments were carried out in triplicate and the concentration resulting in 50% response (IC50) was calculated in GraphPad Prism 5 (GraphPad Software, La Jolla, Calif.) using the sigmoidal dose-response regression function.
(In general: In fluorescence polarisation assays a small probe gives low polarisation when free and higher when bound to something large.)

Assay [2] deals with T1, CAIX. In words: Competitive fluorescence polarization assay for [Al19F]XYIMSR-04, [63/65Cu]XYIMSR-06 and [175Lu]XYIMSR-01. The assay is classed as binding. Set-up: purchased R&D Systems. The note with it: 100 nM CAIX, 80 nM FITC-labeled ligand; read-out: IC50, competitive fluorescence polarization (similar method).
Source text: as §1
Competitive Fluorescence Polarization Assay for [Al^19F]XYIMSR-04, [^63/65Cu]XYIMSR-06, and [^175Lu]XYIMSR-01. Fluorescence polarization (FP) experiments were performed in 21 μL of the assay buffer (12.5 mM Tris-HCl, pH 7.5, 75 mM NaCl) in transparent flat bottom 384 well Small Volume™ LoBase Microplates (Greiner Bio-One, Frickenhausen Germany). The FP reaction employed 100 nM of purified CAIX (R&D systems, Minneapolis, Minn.) and 80 nM FITC-labeled ligand within the assay buffer. The FP values were measured as mP units using the Safire2™ plate reader (Tecan, Morrisville, N.C.) with excitation at 475 nm and emission at 532 nm emission. 100 nM CAIX was incubated with serially diluted (from 8 μM to 488.2 fM) concentrations of the […] targeting molecules, 2, [Al^19F]XYIMSR-04, [^63/65Cu]XYIMSR-06 and [^175Lu]XYIMSR-01 for 30 min at room temperature in 384 well plates. 80 nM FITC-labeled ligand was added to each well and the reaction was incubated for 30 min at room temperature followed by FP measurements. Experiments were carried out in triplicate and the concentration resulting in 50% response (IC50) was calculated in GraphPad Prism 5 (GraphPad Software, La Jolla, Calif.) using the sigmoidal dose-response regression function.

Assay [3] addresses T1, CAIX. On the set-up: host or cells: ccRCC tumours in patients. The note with it: Wichert et al., 2015; read-out: Kd for CAIX (known / reported); cited from earlier work.

The term IC50 denotes the midpoint of a concentration-inhibition curve. Turning to `CC(CCC(=O)N[C@@H](CC(=O)N[C@@H](CC(=O)N[C@@H](CCCCn1cc(CCCC(=O)Nc2nnc(S(N)(=O)=O)s2)nn1)C(=O)NCCOCCOCCN)C(=O)O)C(=O)O)(c1ccc(O)cc1)c1ccc(O)cc1` [compound 3, N^4-((S)-1-((2-(2-(2-aminoethoxy)ethoxy)ethyl)amino)-1-oxo-6-(4-(4-oxo-4((5-sulfamoyl-1,3,4-thiadiazol-2-yl)amino)butyl)-1H-1,2,3-triazol-1-yl)hexan-2-yl)-N^2-((S)-3-(4,4-bis(4-hydroxyphenyl)pentanamido)-3-carboxypropanoyl)-L-asparagine, reference compound], the IC50 on CAIX [1] (100 nM CAIX, 80 nM FITC-labeled 8, read-out: IC50, inhibition of fluorescence polarization of FITC labeled 8) came out at 75.9 nM; at CAIX [2], 63.6 ± 2.8 nM. Besides, the “binding affinity to CAIX (in words)” value on CAIX [1] (competitive fluorescence polarization) was “high binding affinity”. Besides, the Kd on CAIX [3] is 2.6 nM.

The values above are taken from patent US20190192699A1, “NUCLEAR IMAGING AND RADIOTHERAPEUTICS AGENTS TARGETING CARBONIC ANHYDRASE IX AND USES THEREOF” (THE JOHNS HOPKINS UNIVERSITY, priority 2016, published 2019).
